# Data taken from patent US20160074380A1, “Treatment Of Neurodegenerative Diseases With Combination Of Laquinimod And Fingolimod” (TEVA PHARMACEUTICAL INDUSTRIES LTD., priority 2014, published 2016).
# Assays:
# [1] = tested on: lysolecithin model; settings: Hu, 2011; cited from earlier work
# [2] = DA EAE rats, doses 0.03-0.3 mg/kg; Foster, 2007; cited from earlier work
# [3] = tested on: lymphocyte counts; test: Lymphocyte counts over time with laquinimod versus placebo; type: in vivo; settings: laquinimod 0.6 mg group vs placebo or baseline, all visits
# [4] = tested on: human microglia; test: Human microglia activation in culture (LPS); type: cell-based
# Text: (§1) In another study, laquinimod reduced microglial activation in culture. The size of CD14 stained human microglia was increased with LPS activation. Also, in FIG. 13, human (C) or mouse (D) microglia elevated TNF-α secretion upon LPS activation, which was attenuated by laquinimod.
# [5] = tested on: H2TT (primary neuronal culture) cells; test: Oxidative glutamate toxicity of H2TT cells; type: cell-based; settings: prolonged incubation
# [6] = tested on: mouse microglia; test: Mouse microglia TNF-α secretion upon LPS activation; type: cell-based
# Text: as §1
# [7] = tested on: cuprizone model; test: Demyelination and re-myelination in the cuprizone model; type: in vivo
Structure (SMILES),re-myelination [1],brain/blood ratio [2],lymphocyte counts [3],size of CD14 stained human microglia ([4]; LPS activation),microglial production of pro-inflammatory cytokine ([4]; human microglia),"TNF-α secretion ([4]; human microglia, LPS activation)",oxidative glutamate toxicity [5],TNF-α secretion [6],re-myelination ([7]; after cuprizone withdrawal),demyelination ([7]; cuprizone model (non-T cell model of demyelination))
CCCCCCCCc1ccc(CCC(N)(CO)CO)cc1 [Fingolimod],lack of any effect,about 20,–,–,–,–,–,–,–,–
CCN(C(=O)c1c(O)c2c(Cl)cccc2n(C)c1=O)c1ccccc1 [Laquinimod],–,–,remained stable,reduced,inhibited,attenuated,protects against oxidative glutamate toxicity,attenuated,no effect,significantly less demyelination
